Reference: patent US10239957B2, “Peptide containing conjugates for dual molecular delivery of oligonucleotides” (Merck Sharp & Dohme Corp., priority 2013, dated 2019)
In the oligonucleotide strings, read from the 5' end, every base follows the letter of its sugar. An asterisk marks phosphorothioate; unmarked linkages are phosphodiester. Other units and linkages are bracketed, terminal groups are in braces. A string of capitals states the bases alone. Where no end group is shown, it is not given here. [ ]: non-standard residue; d: D form. {NH2C6-invAb} = cap: inverted abasic residue carrying an aminohexyl phosphate (attachment handle); [invAb] = inverted abasic unit; m = 2'-O-methyl; f = 2'-fluoro

Key:
CTNNB1 [1] = experiment: In vivo evaluation in mice: liver mRNA knockdown measurement; conditions: for In vivo mRNA knockdown: mice
Description: (§1) Female CD-1 mice (Charles River) were injected in accordance with either a sequential dosing paradigm or a co-dosing paradigm. In the sequential dosing paradigm, the targeted siRNA (SCE) is dosed at t=0 and the targeted peptide is separately dosed up to 2 hr before the SCE (−2 hr) or up to 24 hr after the SCE (+24 hr). In the co-dosing paradigm, the SCE and peptides are co-formulated and dosed together in the same formulation as a single injection at t=0. The mice were dosed either by intravenous (i.v.) or subcutaneous (s.c.) injection of SCE and peptide. For the i.v. doses, the compounds were injected into the tail vein of the mice. For the s.c. doses, the compounds were injected in the subcutaneous space on the back of the mouse between the shoulder blades. At the indicated harvest times (measured from t=0 when the siRNA was dosed, regardless of when the peptide was dosed), the animals were sacrificed and 3 mm liver punches were collected, preserved in RNAlater (Ambion), and stored at 4° C. Separate 5 mm liver punches were collected, placed in 96-well plates, frozen on dry ice, and stored at −80° C. until use.
The 3 mm liver punches were removed from RNAlater and homogenized in Trizol (Invitrogen) using a bead mill tissue lyser (Qiagen); disruption was performed for two 5-minute cycles at 30 Hz. RNA extraction was performed using 1-bromo-2-chloropropane (Acros Organics) and total RNA was isolated from the aqueous phase using the MagMax RNA isolation method (Ambion). […] TaqMan qPCR analysis was performed with an ABI 7900 Real-Time PCR System using TaqMan Fast Advanced Master Mix (Applied Biosystems). All TaqMan probes and primers for CTNNB1 and PPIB (housekeeping gene) were purchased from Applied Biosystems as pre-validated gene expression assays. Results are calculated by the comparative Ct method, where the difference between the CTNNB1 Ct value and the PPIB Ct value (ΔCt) is calculated and then further normalized relative to the PBS control by taking a second difference (ΔΔCt), as described previously (1).

[2] = Lethality observed on in vivo dosing in mice; parameters: key: *: lethal at this dose
Description: as §1

CTNNB1 [3] = experiment: In vitro DMD assay: mRNA silencing enhancement by peptide conjugates after siRNA-IV treatment; type: cell-based; conditions: primary mouse hepatocytes, siRNA-IV 125 nM baseline
Procedure, shortened: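 Primary mouse hepatocytes were pretreated 1 h with siRNA-IV at 125 nM, then exposed ~16 h to peptide conjugates across a dose range, washed and held 24 h more. Target mRNA by RT-qPCR, normalized to PPIB (dddCt), expressed as enhancement over siRNA-IV alone relative to untreated cells.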

RISC = target: T1, RISC (Mus musculus, UniProt Q8CJG0); experiment: Quantitation of siRNA bound to RISC (RISC loading) in liver; type: in vivo, mice; conditions: siRNA with vinyl phosphonate vs siRNA-I
T1 construct: from tissue; host or cells: liver of female CD-1 mice (5 mm liver punches)
T1 sequence (Q8CJG0 whole entry): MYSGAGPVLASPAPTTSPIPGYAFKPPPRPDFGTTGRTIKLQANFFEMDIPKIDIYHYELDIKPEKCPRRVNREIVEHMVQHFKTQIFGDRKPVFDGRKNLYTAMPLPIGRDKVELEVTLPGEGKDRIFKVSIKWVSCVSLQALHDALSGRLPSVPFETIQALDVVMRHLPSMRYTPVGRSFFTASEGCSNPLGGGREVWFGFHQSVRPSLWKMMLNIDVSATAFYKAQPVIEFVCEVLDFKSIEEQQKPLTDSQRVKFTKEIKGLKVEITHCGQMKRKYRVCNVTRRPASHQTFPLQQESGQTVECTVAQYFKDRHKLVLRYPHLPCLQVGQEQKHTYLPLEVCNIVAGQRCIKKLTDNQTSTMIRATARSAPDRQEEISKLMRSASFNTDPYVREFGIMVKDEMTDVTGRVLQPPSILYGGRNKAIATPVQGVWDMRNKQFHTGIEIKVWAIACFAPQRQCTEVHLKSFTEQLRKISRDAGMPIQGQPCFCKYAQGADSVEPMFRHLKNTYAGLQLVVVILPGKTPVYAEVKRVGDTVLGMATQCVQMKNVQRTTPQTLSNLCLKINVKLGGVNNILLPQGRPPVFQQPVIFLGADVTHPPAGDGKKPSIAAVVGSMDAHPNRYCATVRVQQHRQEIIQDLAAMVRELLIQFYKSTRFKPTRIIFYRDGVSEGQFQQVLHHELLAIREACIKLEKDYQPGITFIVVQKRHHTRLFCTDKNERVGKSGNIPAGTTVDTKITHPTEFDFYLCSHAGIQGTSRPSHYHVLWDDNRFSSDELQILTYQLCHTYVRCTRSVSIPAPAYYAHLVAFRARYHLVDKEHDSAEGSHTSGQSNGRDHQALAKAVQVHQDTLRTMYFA
Description: as §1, with “use. […]” for “use.”

[4] = siRNA metabolic stability (order stated for FIG. 6); conditions: order siRNA-I>siRNA-V>siRNA-VI
[5] = TGN-L-siRNA-III 0.5 mg/kg IV, peptide 2 mg/kg IV 15 min after siRNA
[6] = TGN-L-siRNA-III 0.5 mg/kg IV, peptide 10 mg/kg IV 15 min after siRNA
[7] = TGN-L-siRNA-III 0.5 mg/kg IV, peptide 25 mg/kg IV 15 min after siRNA
[8] = TGN-L-siRNA-III 0.25 mg/kg IV, peptide 50 mg/kg IV 15 min after siRNA

TGN-S-S-SEQ ID NO: 1248 (D) (C[dF][dL][dE][dE][dL][dW][dE][dL][dL][dE][dH][dL][dL]; not fully specified (residue 1); listed as Homo sapiens)
In vivo mRNA knockdown (CTNNB1 [1]; [5]): 42%
In vivo mRNA knockdown (CTNNB1 [1]; [6]): 74%
In vivo mRNA knockdown (CTNNB1 [1]; [7]): 58%
Lethality mark at targeted peptide dose [2, 7]: 25*

TGN-S-S-SEQ ID NO: 1419 (D) (C[dF][dL][dE][dE][dL][dW]G[dL][dL][dE][dH][dL][dL]; not fully specified (residue 1); listed as Homo sapiens)
In vivo mRNA knockdown (CTNNB1 [1]; [5]): 43%
In vivo mRNA knockdown (CTNNB1 [1]; [6]): 78%
In vivo mRNA knockdown (CTNNB1 [1]; [7]): 76%
Lethality mark at targeted peptide dose [2, 7]: 25*

TGN-S-S-SEQ ID NO: 1654 (D) (CG[dL][dL][dE][dE][dI][dE][dE][dL][dL][dE][dE]G[dL][dE][dN][dL][dI][dD][dW]G[dN][dS]; not fully specified (residue 1); listed as Homo sapiens)
In vitro dddCt (vs. baseline SCE dose) (CTNNB1 [3]; Targeted peptide dose 25 nM): −0.39
In vitro dddCt (vs. baseline SCE dose) (CTNNB1 [3]; Targeted peptide dose 125 nM): −1.05
In vitro dddCt (vs. baseline SCE dose) (CTNNB1 [3]; Targeted peptide dose 3125 nM): −1.48
In vitro dddCt (vs. baseline SCE dose) (CTNNB1 [3]; Targeted peptide dose 15625 nM): −1.61
In vivo mRNA knockdown (CTNNB1 [1]; TGN-L-siRNA-III 0.25 mg/kg IV, peptide 2 mg/kg IV 15 min after siRNA): 51%
In vivo mRNA knockdown (CTNNB1 [1]; TGN-L-siRNA-III 0.25 mg/kg IV, peptide 10 mg/kg IV 15 min after siRNA): 72%
In vivo mRNA knockdown (CTNNB1 [1]; [8]): 65%
Lethality mark at targeted peptide dose [2, 8]: 50*

siRNA-III: CTNNB1 siRNA; passenger SEQ ID NO 1803, guide SEQ ID NO 1806 (vinylPmoeT) (sense CUGUUGGAUUGAUUCGAAAUU; guide TUUCGAAUCAAUCCAACAGUU; vinylphosphonate MOE T; (1)..(1) aminohexyl phosphate inverted abasic cap; (1)..(2) 2′-O-methyl; (3)..(3) 2′-deoxy-2′-fluoro; (4)..(5) 2′-O-methyl; (6)..(8) 2′-deoxy-2′-fluoro; (9)..(10) 2′-O-methyl; (11)..(12) 2′-deoxy-2′-fluoro; (13)..(15) 2′-O-methyl; (16)..(19) 2′-deoxy-2′-fluoro; (20)..(21) 2′-O-methyl; (20)..(21) phosphorothioate internucleotide linkage; (21)..(21) inverted abasic cap; (1)..(1) terminal vinyl phosphate; (1)..(1) 2′-methoxyethoxy; (2)..(21) ribonucleotide unmodified or modified as described for this sequence; (2)..(2) 2′-deoxy-2′-fluoro; (3)..(3) 2′-O-methyl; (4)..(4) …)
Time course of RISC loading (FIG. 5): rate of RISC loading (RISC): faster RISC loading

siRNA-VI: CTNNB1 siRNA; passenger SEQ ID NO 1803, guide SEQ ID NO 1809 (sense {NH2C6-invAb}-mCmUfGmUmUfGfGfAmUmUfGfAmUmUmCfGfAfAfAmU*mU[invAb]; guide fUfUfUmCfGfAfAmUmCfAfAmUmCfCfAfAmCfAfGmU*mU)
Activity, FIG. 6 (CTNNB1 [1]; DMD with peptide, more unstable siRNA): background levels
siRNA (metabolic) stability [4]: more unstable
